Values quoted from earlier work as cited in US20210145768A1, “MODULATING IMMUNE RESPONSE VIA TARGETING OF OLFACTORY RECEPTOR ACTIVITY” (La Jolla Institute for Allergy and Immunology, priority 2018, published 2021).

Test system: olfactory receptors
Conditions: odorant (agonist) : olfactory receptor pair; cited from earlier work

| Compound | Olfactory receptor agonized by the odorant (agonist) |
| --- | --- |
| CC1=CCC(CCC(C)CO)C1(C)C (stereo not drawn) [Brahmanol] | OR2AT4 |
| CCCCCOC(=O)CCC [amyl butyrate] | OR2AG1 |
| O=C(O)CCCCCCCC(=O)O [azelaic acid] | Olfr544 (human unknown) |
